Columns and labels:
Type in all cases: in vivo, human
[1] = test system: meal glucose; test: Meal glucose, oral mixed micellar insulin vs injection, healthy non-diabetic volunteers (Example 11); details: injection 10 units, ten healthy volunteers, meal 30 min after dosing
Procedure: The mixed micellar formulation of Example 9 was tested in healthy volunteers under controlled conditions to determine the oral insulin effect on meal glucose when compared to injected insulin.
In one set of tests, ten healthy non-diabetic human volunteers were tested with insulin, by injection. In another set of tests the volunteers were tested with insulin, taken orally. The volunteers fasted from midnight prior to the tests, with food being taken 30 minutes after dosing. The meals were standard Sastacal 240 mL liquid diet approved by the Diabetic Society, containing 400 calories.
(§1) On the first day, the volunteers received 10 units insulin by injection (regular fast acting insulin, available from Eli Lilly). On the second day, the volunteers received 30 units of the above-prepared oral insulin (3 times the injection dose). In both tests, blood glucose levels were monitored every 15 minutes by Bayer's Glucometer Elite.

[2] = test system: meal glucose; test: Meal glucose, oral mixed micellar insulin vs injection, Type II diabetic volunteers (Example 12); details: injection 10 units, avg of 10 Type II diabetics, meal 30 min after dosing
Procedure: The mixed micellar formulation of Example 9 was tested in diabetic volunteers under controlled conditions to determine the oral insulin effect on meal glucose when compared to injected insulin.
In one set of tests, ten Type II diabetic human volunteers who took insulin, by injection three times a day, were studied. In another set of tests the volunteers were tested with insulin, taken orally. The volunteers fasted from midnight prior to the tests, with food being taken 30 minutes after dosing. The meals were standard Sastacal 240 mL liquid diet approved by the Diabetic Society, containing 400 calories.
as §1

[3] = test system: blood glucose; test: Blood glucose, oral mixed micellar insulin vs injection, fasted Type II diabetic volunteers (Example 8); details: injection 10 units, avg of 10 fasted Type II diabetics
Procedure: In one set of tests, ten Type II diabetic human volunteers who took insulin, by injection three times a day, were studied. In another set of tests the volunteers were tested with insulin, faken orally. The volunteers fasted from midnight prior to the test, with no food being taken during the 4 hour study. On the first day, the volunteers received 10 units insulin by injection (regular fast acting insulin, available from Eli Lilly). On the second day, the volunteers received 30 units (1 mL volume per drop, approximately 20 drops) of the above-prepared oral insulin (3 times the injection dose). In both tests, blood glucose levels were monitored every 15 minutes by Bayer's Glucometer Elite.

[4] = test system: blood glucose; test: Blood glucose, oral mixed micellar insulin (bacitracin, evening primrose oil) vs injection, fasted volunteers (Example 14); details: injection 10 units, avg of six fasted volunteers
Procedure: Six human volunteers were studied. The volunteers fasted from midnight prior to the test, with no food being taken during the 4 hour study. On the first day, the volunteers received 10 units insulin by injection (regular fast acting insulin, available from Eli Lilly). On the second day, the volunteers received 20 units of the above-prepared oral insulin (twice the injection dose). In both tests, blood glucose levels were monitored at intervals by Bayer's Glucometer Elite.

[5] = test system: blood glucose; test: Blood glucose, nasal mixed micellar insulin vs injection (Example 10); details: injection 10 units, avg of ten volunteers
Procedure: The formulation of Example 9 was tested in a manner similar to that indicated in Example 8 except that the formulation of the present invention was administered nasally.
On the first day, the ten volunteers each received 10 units insulin injection (regular fast acting, Eli Lilly). On the second day, the volunteers received 20 units of the “oral” insulin of Example 9 (2 times the injection dose). The “oral” insulin was administered as drops (0.4 mL volume per drop, approximately 4 large drops in total, i.e. two drops in each nostril).

[6] = test system: blood glucose; test: Blood glucose after insulin injection vs oral insulin drops, fasted healthy non-diabetic volunteers (Example 1); parameters: unit not given here; details: 10 units sub-cutaneous injection, avg of 5 fasted healthy volunteers
Procedure: In one set of tests, five healthy non-diabetic human volunteers were tested with insulin, by injection. In another set of tests the volunteers were tested with insulin, taken orally. The volunteers fasted from midnight prior to the test, with no food being taken during the 4 hour study.
On the first day, the volunteers received 10 units of insulin by injection (regular fast acting insulin, available from Eli Lilly). On the second day, the volunteers received 100 units (1 mL volume per drop, approximately 20 drops) of the above-prepared oral insulin (10 times the injection dose). In both tests, blood glucose levels were monitored every 15 minutes by Bayer's Glucometer Elite.

**Q.** For “regular fast acting insulin: regular fast acting insulin, available from Eli Lilly, given by injection (10 units)”, which Blood glucose levels ([1]; 0 min) is on record?
**A.** 5.5 mmol/L

**Q.** What about the Blood glucose levels ([1]; 15 min) of the same substance?
**A.** 5.6 mmol/L

**Q.** And the Blood glucose levels ([1]; 30 min)?
**A.** 5.4 mmol/L

**Q.** What about the Blood glucose levels ([1]; 45 min) of the same substance?
**A.** 5.4 mmol/L

**Q.** And the Blood glucose levels ([1]; 60 min)?
**A.** 5.6 mmol/L

**Q.** And the Blood glucose levels ([1]; 75 min)?
**A.** 6.6 mmol/L

**Q.** And the Blood glucose levels ([1]; 90 min)?
**A.** 7.0 mmol/L

**Q.** And the Blood glucose levels ([1]; 105 min)?
**A.** 5.9 mmol/L

**Q.** What about the Blood glucose levels ([1]; 120 min) of the same substance?
**A.** 5.6 mmol/L

**Q.** What about the Blood glucose levels ([1]; 135 min) of the same substance?
**A.** 5.1 mmol/L

**Q.** What about the Blood glucose levels ([1]; 150 min) of the same substance?
**A.** 4.8 mmol/L

**Q.** What about the Blood glucose levels ([1]; 165 min) of the same substance?
**A.** 4.6 mmol/L

**Q.** What about the Blood glucose levels ([1]; 180 min) of the same substance?
**A.** 4.3 mmol/L

**Q.** And the Blood glucose levels ([2]; 0 min)?
**A.** 8.7 mmol/L

**Q.** What about the Blood glucose levels ([2]; 15 min) of the same substance?
**A.** 8.8 mmol/L

**Q.** And the Blood glucose levels ([2]; 30 min)?
**A.** 8.9 mmol/L

**Q.** And the Blood glucose levels ([2]; 45 min)?
**A.** 10.1 mmol/L

**Q.** What about the Blood glucose levels ([2]; 60 min) of the same substance?
**A.** 11.8 mmol/L

**Q.** What about the Blood glucose levels ([2]; 75 min) of the same substance?
**A.** 11.8 mmol/L

**Q.** And the Blood glucose levels ([2]; 90 min)?
**A.** 12.2 mmol/L

**Q.** And the Blood glucose levels ([2]; 105 min)?
**A.** 11.2 mmol/L

**Q.** And the Blood glucose levels ([2]; 120 min)?
**A.** 10.4 mmol/L

**Q.** What about the Blood glucose levels ([2]; 135 min) of the same substance?
**A.** 8.4 mmol/L

**Q.** What about the Blood glucose levels ([2]; 150 min) of the same substance?
**A.** 7.3 mmol/L

**Q.** And the Blood glucose levels ([2]; 165 min)?
**A.** 6.5 mmol/L

**Q.** And the Blood glucose levels ([2]; 180 min)?
**A.** 4.3 mmol/L

**Q.** What about the Blood glucose levels ([3]; 0 min) of the same substance?
**A.** 6.8 mmol/L

**Q.** And the Blood glucose levels ([3]; 15 min)?
**A.** 6.9 mmol/L

**Q.** And the Blood glucose levels ([3]; 30 min)?
**A.** 6.1 mmol/L

**Q.** And the Blood glucose levels ([3]; 45 min)?
**A.** 5.8 mmol/L

**Q.** And the Blood glucose levels ([3]; 60 min)?
**A.** 5.8 mmol/L

**Q.** What about the Blood glucose levels ([3]; 75 min) of the same substance?
**A.** 5.8 mmol/L

**Q.** What about the Blood glucose levels ([3]; 90 min) of the same substance?
**A.** 5.4 mmol/L

**Q.** And the Blood glucose levels ([3]; 105 min)?
**A.** 5.4 mmol/L

**Q.** And the Blood glucose levels ([3]; 120 min)?
**A.** 5.2 mmol/L

**Q.** What about the Blood glucose levels ([3]; 135 min) of the same substance?
**A.** 5.1 mmol/L

**Q.** And the Blood glucose levels ([3]; 150 min)?
**A.** 4.9 mmol/L

**Q.** And the Blood glucose levels ([3]; 165 min)?
**A.** 4.9 mmol/L

**Q.** What about the Blood glucose levels ([3]; 180 min) of the same substance?
**A.** 4.8 mmol/L

**Q.** What about the Blood glucose levels ([3]; 195 min) of the same substance?
**A.** 4.8 mmol/L

**Q.** What about the Blood glucose levels ([3]; 210 min) of the same substance?
**A.** 5.2 mmol/L

**Q.** And the Blood glucose levels ([3]; 225 min)?
**A.** 5.2 mmol/L

**Q.** And the Blood glucose levels ([3]; 240 min)?
**A.** 5.4 mmol/L

**Q.** What about the Blood glucose levels ([4]; 0 min) of the same substance?
**A.** 7.9 mmol/L

**Q.** And the Blood glucose levels ([4]; 15 min)?
**A.** 7.9 mmol/L

**Q.** What about the Blood glucose levels ([4]; 30 min) of the same substance?
**A.** 8.2 mmol/L

**Q.** What about the Blood glucose levels ([4]; 45 min) of the same substance?
**A.** 8.3 mmol/L

**Q.** And the Blood glucose levels ([4]; 60 min)?
**A.** 7.6 mmol/L

**Q.** And the Blood glucose levels ([4]; 90 min)?
**A.** 6.2 mmol/L

**Q.** What about the Blood glucose levels ([4]; 120 min) of the same substance?
**A.** 5.2 mmol/L

**Q.** What about the Blood glucose levels ([4]; 150 min) of the same substance?
**A.** 4.6 mmol/L

**Q.** And the Blood glucose levels ([4]; 180 min)?
**A.** 3.9 mmol/L

**Q.** What about the Blood glucose levels ([4]; 210 min) of the same substance?
**A.** 4.4 mmol/L

**Q.** And the Blood glucose levels ([4]; 240 min)?
**A.** 5.2 mmol/L

**Q.** And the Blood glucose levels ([5]; 0 min)?
**A.** 6.8 mmol/L

**Q.** And the Blood glucose levels ([5]; 15 min)?
**A.** 7.0 mmol/L

**Q.** And the Blood glucose levels ([5]; 30 min)?
**A.** 6.8 mmol/L

**Q.** What about the Blood glucose levels ([5]; 45 min) of the same substance?
**A.** 6.3 mmol/L

**Q.** And the Blood glucose levels ([5]; 60 min)?
**A.** 6.3 mmol/L

**Q.** And the Blood glucose levels ([5]; 75 min)?
**A.** 5.8 mmol/L

**Q.** What about the Blood glucose levels ([5]; 90 min) of the same substance?
**A.** 5.2 mmol/L

**Q.** What about the Blood glucose levels ([5]; 105 min) of the same substance?
**A.** 5.0 mmol/L

**Q.** And the Blood glucose levels ([5]; 120 min)?
**A.** 5.2 mmol/L

**Q.** What about the Blood glucose levels ([5]; 135 min) of the same substance?
**A.** 4.2 mmol/L

**Q.** And the Blood glucose levels ([5]; 150 min)?
**A.** 4.6 mmol/L

**Q.** What about the Blood glucose levels ([5]; 165 min) of the same substance?
**A.** 4.0 mmol/L

**Q.** And the Blood glucose levels ([5]; 180 min)?
**A.** 4.1 mmol/L

**Q.** What about the Blood glucose levels ([5]; 195 min) of the same substance?
**A.** 4.3 mmol/L

**Q.** And the Blood glucose levels ([5]; 210 min)?
**A.** 4.5 mmol/L

**Q.** And the Blood glucose levels ([5]; 225 min)?
**A.** 4.7 mmol/L

**Q.** What about the Blood glucose levels ([5]; 240 min) of the same substance?
**A.** 5.0 mmol/L

**Q.** What about the Blood glucose level ([6]; 0 min) of the same substance?
**A.** 5.8

**Q.** What about the Blood glucose level ([6]; 15 min) of the same substance?
**A.** 5.8

**Q.** And the Blood glucose level ([6]; 30 min)?
**A.** 5.4

**Q.** And the Blood glucose level ([6]; 60 min)?
**A.** 5.0

**Q.** And the Blood glucose level ([6]; 75 min)?
**A.** 4.6

**Q.** And the Blood glucose level ([6]; 90 min)?
**A.** 4.3

**Q.** And the Blood glucose level ([6]; 120 min)?
**A.** 3.8

**Q.** What about the Blood glucose level ([6]; 150 min) of the same substance?
**A.** 3.6

**Q.** What about the Blood glucose level ([6]; 180 min) of the same substance?
**A.** 3.4

**Q.** What about the Blood glucose level ([6]; 210 min) of the same substance?
**A.** 4.2

**Q.** And the Blood glucose level ([6]; 240 min)?
**A.** 4.5
